Measurements reported in ChEMBL document CHEMBL1201862, “PubChem BioAssay data set” (2004).
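Compound exposure: 48 hours, 5 concentrations, 96-well plates. GI50 = concentration required for 50% inhibition of growth.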 Activity calls are given as the source filed them. No stated cut-off is given here; in the data, active = GI50 up to about 1.1 µM and inactive = higher.

Columns and labels:
Test in all cases: inhibition of tumour cell growth, NCI panel, 48 h
A549 = test system: A549
CCRF-CEM = test system: CCRF-CEM
HL-60 = test system: HL-60
HOP-62 = test system: HOP-62
IGROV-1 = test system: IGROV-1
KM12 = test system: KM12
LOX IMVI = test system: LOX IMVI
NCI-H522 = test system: NCI-H522
NCI/ADR-RES = test system: NCI/ADR-RES
OVCAR-5 = test system: OVCAR-5
RXF 393 = test system: RXF 393
SF-268 = test system: SF-268
SF-295 = test system: SF-295
SK-MEL-28 = test system: SK-MEL-28
SNB-19 = test system: SNB-19
SR = test system: SR
SW-620 = test system: SW-620
UACC-257 = test system: UACC-257
M14 = test system: M14
T47D = test system: T47D

Measured: GI50

C=C1C(=O)O[C@H]2C[C@@]3(COC(C)=O)C=COC=C(COC(=O)C(C)C)C3CC12 (stereo not given in full)
inactive: A549 > 100 µM | CCRF-CEM 24 µM | HL-60 23.8 µM | HOP-62 > 100 µM | IGROV-1 > 100 µM | KM12 > 100 µM | LOX IMVI 45.2 µM | NCI-H522 60 µM | NCI/ADR-RES > 100 µM | OVCAR-5 > 100 µM | RXF 393 67.6 µM | SF-268 > 10 µM | SF-295 > 100 µM | SK-MEL-28 > 100 µM | SNB-19 > 100 µM | SR 25.9 µM | SW-620 46.1 µM | UACC-257 > 100 µM

COc1ccc(-c2cc(O)c3cc(OC)c(OC)cc3n2)cc1OC
inactive: A549 > 100 µM | CCRF-CEM > 100 µM | HOP-62 37.7 µM | IGROV-1 > 100 µM | KM12 > 100 µM | LOX IMVI > 100 µM | M14 > 100 µM | NCI-H522 > 100 µM | NCI/ADR-RES > 100 µM | OVCAR-5 > 100 µM | RXF 393 67.3 µM | SF-268 > 100 µM | SF-295 > 100 µM | SK-MEL-28 > 100 µM | SNB-19 > 100 µM | SR > 100 µM | SW-620 > 100 µM | UACC-257 > 100 µM

O=c1cc[nH]c2c1ccc1ncccc12
inactive: A549 > 100 µM | CCRF-CEM > 100 µM | HL-60 > 100 µM | HOP-62 > 100 µM | IGROV-1 > 100 µM | KM12 > 100 µM | LOX IMVI > 100 µM | M14 > 100 µM | NCI-H522 > 100 µM | OVCAR-5 > 100 µM | RXF 393 > 100 µM | SF-268 > 100 µM | SK-MEL-28 > 100 µM | SNB-19 > 100 µM | SR > 100 µM | SW-620 > 100 µM | UACC-257 > 100 µM

Cn1ccc(C(=O)NCCOCCNC(=O)c2ccn(C)c(=O)c2O)c(O)c1=O
inactive: A549 > 100 µM | KM12 18.2 µM | LOX IMVI > 100 µM | NCI-H522 > 100 µM | NCI/ADR-RES > 100 µM | SF-268 > 100 µM | SK-MEL-28 > 100 µM | SNB-19 > 100 µM | SW-620 > 100 µM | T47D > 100 µM | UACC-257 > 100 µM

C/N=c1\ss/c(=N\C(=S)N(C)C)n1-c1ccccc1
inactive: A549 > 100 µM | CCRF-CEM > 100 µM | HL-60 > 100 µM | HOP-62 > 80.7 µM | IGROV-1 97.7 µM | KM12 > 100 µM | LOX IMVI > 100 µM | M14 > 100 µM | NCI-H522 9.14 µM | OVCAR-5 > 100 µM | RXF 393 > 48.2 µM | SF-268 34 µM | SF-295 > 75.5 µM | SK-MEL-28 > 100 µM | SNB-19 > 52.7 µM | SR > 100 µM | SW-620 > 100 µM | UACC-257 > 100 µM

CC(C)Cc1ccc(C(C)C(=O)N2CCN(/C=C/c3ccccc3)CC2)cc1 (stereo not given)
inactive: A549 11.5 µM | CCRF-CEM 13 µM | HL-60 3.94 µM | HOP-62 15.8 µM | IGROV-1 15.1 µM | KM12 15.5 µM | LOX IMVI 18.7 µM | NCI-H522 11.6 µM | NCI/ADR-RES 13.1 µM | OVCAR-5 13.9 µM | RXF 393 14.1 µM | SF-268 16.3 µM | SF-295 15.9 µM | SK-MEL-28 17.7 µM | SNB-19 2.79 µM | SW-620 15.6 µM | UACC-257 17.3 µM

CC(=O)C(CN(C)C)C(c1ccccc1)c1c(O)c2ccccc2oc1=O (stereo not given)
inactive: A549 > 100 µM | CCRF-CEM > 100 µM | HL-60 > 100 µM | HOP-62 > 100 µM | IGROV-1 > 100 µM | KM12 > 100 µM | LOX IMVI > 100 µM | M14 > 100 µM | NCI-H522 > 100 µM | OVCAR-5 > 100 µM | RXF 393 > 100 µM | SF-268 > 100 µM | SF-295 > 100 µM | SK-MEL-28 > 100 µM | SNB-19 > 100 µM | SR > 100 µM | SW-620 > 100 µM | UACC-257 > 100 µM

CC12CCC(C(=O)N3CC=CCC3)(OC1=O)C2(C)C (stereo not given)
inactive: A549 > 100 µM | CCRF-CEM > 82.8 µM | HL-60 > 100 µM | HOP-62 > 100 µM | IGROV-1 > 100 µM | KM12 > 100 µM | LOX IMVI > 100 µM | NCI-H522 > 100 µM | NCI/ADR-RES > 100 µM | OVCAR-5 > 100 µM | RXF 393 > 100 µM | SF-268 > 100 µM | SF-295 > 100 µM | SK-MEL-28 > 100 µM | SNB-19 > 100 µM | SW-620 > 100 µM | UACC-257 > 100 µM

CC(=O)OCCOCNC(=S)N/N=C(\C)c1cnc2ccccc2n1
inactive: A549 26.6 µM | CCRF-CEM 7.46 µM | HL-60 15.9 µM | HOP-62 86.3 µM | IGROV-1 42 µM | KM12 46.5 µM | LOX IMVI 38.6 µM | M14 36 µM | NCI-H522 21.9 µM | OVCAR-5 7.91 µM | RXF 393 33 µM | SF-268 10.4 µM | SF-295 57.9 µM | SK-MEL-28 43.6 µM | SNB-19 99.3 µM | SR > 100 µM | SW-620 28.2 µM | UACC-257 48.4 µM

O=C(Cc1ccccc1)NN1C(=O)C(Cl)C1c1ccc(Cl)cc1 (stereo not given)
inactive: A549 > 100 µM | CCRF-CEM > 100 µM | HL-60 92.7 µM | HOP-62 > 100 µM | IGROV-1 > 100 µM | KM12 > 100 µM | LOX IMVI > 100 µM | M14 > 100 µM | NCI-H522 > 100 µM | OVCAR-5 > 100 µM | RXF 393 > 100 µM | SF-268 > 100 µM | SF-295 > 100 µM | SK-MEL-28 > 100 µM | SNB-19 69.8 µM | SR 24.1 µM | SW-620 > 100 µM | UACC-257 86.3 µM

COC(=O)c1ccc(/N=N/N(C)COc2ccc(Br)cc2)cc1
inactive: A549 66.7 µM | CCRF-CEM 34 µM | HL-60 20.2 µM | HOP-62 > 100 µM | IGROV-1 > 100 µM | KM12 75.5 µM | LOX IMVI 49.2 µM | NCI-H522 43.5 µM | NCI/ADR-RES > 100 µM | OVCAR-5 > 83.8 µM | RXF 393 80.4 µM | SF-268 > 75.5 µM | SF-295 > 60.8 µM | SK-MEL-28 > 100 µM | SNB-19 > 100 µM | SW-620 > 90.2 µM | UACC-257 > 71.8 µM

CC#N.O[C@@H]1CCCC[C@@H]1O.O[C@@H]1CCCC[C@@H]1O.[TeH2]
inactive: A549 45.8 µM | CCRF-CEM 11.6 µM | HL-60 15.4 µM | HOP-62 41.7 µM | IGROV-1 26.9 µM | KM12 50.8 µM | LOX IMVI 10.6 µM | M14 > 100 µM | NCI-H522 37.3 µM | OVCAR-5 16.3 µM | RXF 393 72.3 µM | SF-268 69.2 µM | SF-295 17.3 µM | SK-MEL-28 72.3 µM | SNB-19 33.1 µM | SR 21.1 µM | SW-620 18.6 µM | UACC-257 54.3 µM
